Results on twelve compounds are retold here after patent US8765940B2 (priority 2009, dated 2014).

Molecules are shown by their SMILES.

The test deals with PI3Kδ (Homo sapiens (Human), UniProt O00329). The test is classed as biochemical. To be noted: PI3Kδ Alphascreen assay. Background: In Alpha technology, singlet oxygen from a donor bead excites a nearby acceptor bead.
Chain of PI3Kδ (O00329 whole entry): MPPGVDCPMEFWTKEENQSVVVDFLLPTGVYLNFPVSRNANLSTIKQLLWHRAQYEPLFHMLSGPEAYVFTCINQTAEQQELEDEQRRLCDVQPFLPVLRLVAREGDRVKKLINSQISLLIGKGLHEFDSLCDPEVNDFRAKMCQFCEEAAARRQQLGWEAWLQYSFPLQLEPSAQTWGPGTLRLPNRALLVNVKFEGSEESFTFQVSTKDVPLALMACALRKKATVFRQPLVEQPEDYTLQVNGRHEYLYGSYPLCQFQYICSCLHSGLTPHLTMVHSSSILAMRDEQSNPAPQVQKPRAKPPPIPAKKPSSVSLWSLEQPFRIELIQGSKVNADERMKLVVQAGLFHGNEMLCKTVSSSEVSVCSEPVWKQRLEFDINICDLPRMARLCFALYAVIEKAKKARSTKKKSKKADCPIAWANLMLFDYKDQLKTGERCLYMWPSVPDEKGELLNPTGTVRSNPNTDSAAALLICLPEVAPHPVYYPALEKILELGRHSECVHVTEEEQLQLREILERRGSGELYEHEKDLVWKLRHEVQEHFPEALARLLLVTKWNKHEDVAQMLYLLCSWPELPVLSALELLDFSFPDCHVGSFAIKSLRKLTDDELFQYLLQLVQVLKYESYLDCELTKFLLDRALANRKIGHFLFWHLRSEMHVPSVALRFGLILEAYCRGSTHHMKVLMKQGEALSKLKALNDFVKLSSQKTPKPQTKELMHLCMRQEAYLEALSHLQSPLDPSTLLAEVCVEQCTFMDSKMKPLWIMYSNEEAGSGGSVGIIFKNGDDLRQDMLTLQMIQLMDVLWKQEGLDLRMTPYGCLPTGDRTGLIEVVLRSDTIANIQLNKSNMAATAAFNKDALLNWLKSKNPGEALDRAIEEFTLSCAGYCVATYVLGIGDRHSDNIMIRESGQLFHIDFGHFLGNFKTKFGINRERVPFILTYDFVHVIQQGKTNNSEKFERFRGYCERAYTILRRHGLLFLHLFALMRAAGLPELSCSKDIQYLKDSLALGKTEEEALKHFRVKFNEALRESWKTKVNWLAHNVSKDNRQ
Chain of PI3Kδ (P27986 whole entry partner): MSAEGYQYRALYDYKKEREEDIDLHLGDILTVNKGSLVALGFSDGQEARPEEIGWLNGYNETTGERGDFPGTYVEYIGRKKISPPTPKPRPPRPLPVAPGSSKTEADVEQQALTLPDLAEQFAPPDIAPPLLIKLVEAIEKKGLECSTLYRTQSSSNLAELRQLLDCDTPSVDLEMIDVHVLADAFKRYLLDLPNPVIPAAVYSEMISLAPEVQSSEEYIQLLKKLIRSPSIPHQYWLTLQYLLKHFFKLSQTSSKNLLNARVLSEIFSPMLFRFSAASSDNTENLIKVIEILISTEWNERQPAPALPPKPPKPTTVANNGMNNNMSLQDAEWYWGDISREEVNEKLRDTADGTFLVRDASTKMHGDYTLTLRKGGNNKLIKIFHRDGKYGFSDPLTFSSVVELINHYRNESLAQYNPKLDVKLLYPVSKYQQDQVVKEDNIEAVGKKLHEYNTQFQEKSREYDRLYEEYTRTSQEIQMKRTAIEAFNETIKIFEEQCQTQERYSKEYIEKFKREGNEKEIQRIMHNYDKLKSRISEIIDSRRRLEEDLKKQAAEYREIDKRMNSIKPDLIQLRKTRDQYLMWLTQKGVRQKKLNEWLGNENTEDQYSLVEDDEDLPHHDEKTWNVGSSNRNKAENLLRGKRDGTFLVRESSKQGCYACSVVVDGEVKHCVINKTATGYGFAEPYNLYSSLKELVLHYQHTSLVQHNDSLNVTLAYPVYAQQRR
Procedure: A PI3K Alphascreen® assay (PerkinElmer, Waltham, Mass.) was used to measure the activity of a panel of four phosphoinositide 3-kinases: PI3Kα, PI3Kβ, PI3Kγ, and PI3Kδ. Enzyme reaction buffer was prepared using sterile water (Baxter, Deerfield, Ill.) and 50 mM Tris HCl pH 7, 14 mM MgCl2, 2 mM sodium cholate, and 100 mM NaCl. 2 mM DTT was added fresh the day of the experiment. The Alphascreen buffer was made using sterile water and 10 mM Tris HCl pH 7.5, 150 mM NaCl, 0.10% Tween 20, and 30 mM EDTA. 1 mM DTT was added fresh the day of the experiment. Compound source plates used for this assay were 384-well Greiner clear polypropylene plates containing test compounds at 5 mM and diluted 1:2 over 22 concentrations. Columns 23 and 24 contained only DMSO as these wells comprised the positive and negative controls, respectively. Source plates were replicated by transferring 0.5 uL per well into 384-well Optiplates (PerkinElmer, Waltham, Mass.).
Each PI3K isoform was diluted in enzyme reaction buffer to 2× working stocks. PI3Kα was diluted to 1.6 nM, PI3Kβ was diluted to 0.8 nM, PI3Kγ was diluted to 15 nM, and PI3Kδ was diluted to 1.6 nM. PI(4,5)P2 (Echelon Biosciences, Salt Lake City, Utah) was diluted to 10 μM and ATP was diluted to 20 μM. This 2× stock was used in the assays for PI3Kα and PI3Kβ. For assay of PI3Kγ and PI3Kδ, PI(4,5)P2 was diluted to 10 μM and ATP was diluted to 8 μM to prepare a similar 2× working stock. Alphascreen reaction solutions were made using beads from the anti-GST Alphascreen kit (PerkinElmer, Waltham, Mass.). Two 4× working stocks of the Alphascreen reagents were made in Alphascreen reaction buffer. In one stock, biotinylated-IP4 (Echelon Biosciences, Salt Lake City, Utah) was diluted to 40 nM and streptavadin-donor beads were diluted to 80 μg/mL. In the second stock, PIP3-binding protein (Echelon Biosciences, Salt Lake City, Utah) was diluted to 40 nM and anti-GST-acceptor beads were diluted to 80 μg/mL.
Using a 384-well Multidrop (Titertek, Huntsville, Ala.), 10 μL/well of 2× enzyme stock was added to columns 1-24 of the assay plates for each isoform. 10 μL/well of the appropriate substrate 2× stock (containing 20 μM ATP for the PI3Kα and β assays and containing 8 μM ATP for the PI3Kγ and δ assays) was then added to Columns 1-24 of all plates. Plates were then incubated at room temperature for 20 minutes. In the dark, 10 μL/well of the donor bead solution was added to columns 1-24 of the plates to quench the enzyme reaction. The plates were incubated at room temperature for 30 minutes. Still in the dark, 10 μL/well of the acceptor bead solution was added to columns 1-24 of the plates. The plates were then incubated in the dark for 1.5 hours. The plates were read on an Envision multimode Plate Reader (PerkinElmer, Waltham, Mass.) using a 680 nm excitation filter and a 520-620 nm emission filter.
As a reminder, the Ki is the dissociation constant of the complex between target and ligand, obtained from inhibition or displacement. Higher therefore signals a looser hold on the target. As to `Cc1c(N2CCOC(C)(C)C2)nc2cc(F)cc(F)c2c1N1CC2(CCOCC2)c2ncc(N3CCOCC3)cc21` [1′-(2-(2,2-dimethyl-4-morpholinyl)-5,7-difluoro-3-methyl-4-quinolinyl)-6′-(4-morpholinyl)-1′,2,2′,3,5,6-hexahydrospiro[pyran-4,3′-pyrrolo[3,2-b]pyridine]], the inhibition constant (Ki) turned out to be 5.4 nM.

Compound `Cc1c(-c2ccccn2)nc2cccc(F)c2c1N1CC(C)(C)c2ccc(N3CCOCC3)cc21` [4-(3,3-dimethyl-6-(4-morpholinyl)-2,3-dihydro-1H-indol-1-yl)-5-fluoro-3-methyl-2-(2-pyridinyl)quinoline] came in with a Ki of 156 nM.

For the compound `Cc1c(-c2cncc(S(C)(=O)=O)c2)nc2cc(F)cc(F)c2c1N1CC(C)(C)c2ncc(N3CCOCC3)cc21` [4-(3,3-dimethyl-6-(4-morpholinyl)-2,3-dihydro-1H-pyrrolo[3,2-b]pyridin-1-yl)-5,7-difluoro-3-methyl-2-(5-(methylsulfonyl)-3-pyridinyl)quinoline], the affinity, expressed as Ki, was 16.7 nM. Compared with the last compound, the Ki is about 9.3-fold lower.

Compound `Cc1c(-c2ccccn2)nc2cccc(F)c2c1N1CCS(=O)(=O)c2ncc(N3CCOCC3)cc21` [1-(5-fluoro-3-methyl-2-(2-pyridinyl)-4-quinolinyl)-7-(4-morpholinyl)-2,3-dihydro-1H-pyrido[2,3-b][1,4]thiazine 4,4-dioxide] returned an inhibitory constant (Ki) of 12.9 nM.

`Cc1nc2c(C)cccc2c(N2CC(C)(C)c3ccc(N4CCOCC4)cc32)c1C` [4-(3,3-dimethyl-6-(4-morpholinyl)-2,3-dihydro-1H-indol-1-yl)-2,3,8-trimethylquinoline] showed a Ki of 44 nM.

Compound `Cc1c(N2CCOC(C)(C)C2)nc2cc(F)cc(F)c2c1N1CC(C)(C)c2ncc(N3CCOCC3)cc21` [2-(2,2-dimethyl-4-morpholinyl)-4-(3,3-dimethyl-6-(4-morpholinyl)-2,3-dihydro-1H-pyrrolo[3,2-b]pyridin-1-yl)-5,7-difluoro-3-methylquinoline] returned a Ki of 1.52 nM. This Ki lies about 29-fold lower than the previous one.

`Cc1c(-c2ccccn2)nc2cc(F)ccc2c1N1CC(C)(C)c2ncc(C3=CCOCC3)cc21` [4-(6-(3,6-dihydro-2H-pyran-4-yl)-3,3-dimethyl-2,3-dihydro-1H-pyrrolo[3,2-b]pyridin-1-yl)-7-fluoro-3-methyl-2-(2-pyridinyl)quinoline] showed a Ki of 6.47 nM. This Ki is about 4.3-fold higher than that of the compound before.

For the compound `Cc1c(-c2ccccn2)nc2cc(F)cc(F)c2c1N1CC2(CCOCC2)c2ccc(N3CCOCC3)cc21` [1-(5,7-difluoro-3-methyl-2-(2-pyridinyl)-4-quinolinyl)-6-(4-morpholinyl)-1,2,2′,3′,5′,6′-hexahydrospiro[indole-3,4′-pyran]], the affinity corresponds to a Ki of 21.1 nM.

As for `Cc1c(C2(c3ccccc3)CC2)nc2cc(F)cc(F)c2c1N1CC(C)(C)c2ncc(N3CCOCC3)cc21` [4-(3,3-dimethyl-6-(4-morpholinyl)-2,3-dihydro-1H-pyrrolo[3,2-b]pyridin-1-yl)-5,7-difluoro-3-methyl-2-(1-phenylcyclopropyl)quinoline], the Ki amounted to 21.8 nM.

The compound `Cc1c(-c2ccccn2)nc2cc(F)ccc2c1N1CC(C)(C)c2ncc(N3CCOCC3)cc21` [4-(3,3-dimethyl-6-(4-morpholinyl)-2,3-dihydro-1H-pyrrolo[3,2-b]pyridin-1-yl)-7-fluoro-3-methyl-2-(2-pyridinyl)quinoline] came in with a Ki of 6.76 nM. Compared with the last compound, the Ki is about 3.2-fold lower.

In turn, `Cc1cc(-c2ccc3c(c2)N(c2c(C)c(-c4ccccn4)nc4cc(F)ccc24)CC3(C)C)nc(N)n1` [4-(1-(7-fluoro-3-methyl-2-(2-pyridinyl)-4-quinolinyl)-3,3-dimethyl-2,3-dihydro-1H-indol-6-yl)-6-methyl-2-pyrimidinamine] showed a Ki of 449 nM.

Take `Cc1ccnc(-c2nc3cnccc3c(N3CC(C)(C)c4ncc(N5CCOCC5)cc43)c2C)c1` [4-(3,3-dimethyl-6-(4-morpholinyl)-2,3-dihydro-1H-pyrrolo[3,2-b]pyridin-1-yl)-3-methyl-2-(4-methyl-2-pyridinyl)-1,7-naphthyridine]: the Ki came to 5.37 nM.
